How the values were obtained:
[1] = Cell viability of COLO 205 cells (EZ4U); assay type: cell-based; details: human, COLO 205 cells (colon adenocarcinoma), read-out: Percentage of cell viability
Description: (§1) Several cell lines obtained from the American Type Culture Collection (ATCC) were cultured at 37° C. and under a 5% CO2 atmosphere. Each cell line was grown in an appropriate culture medium and within the exponential phase (Table I).
(§2) For the cell viability studies 24-well plates were used, where 0.5×10^6 cells/ml (for 24-hour studies), 0.25×10^6 cells/ml (for 48-hour studies) or 0.125×10^6 cells/ml (for 72-hour studies) were incubated. Next, different concentrations of HTB (1-3 mM) were added and cells were incubated for different time periods (37° C., 5% CO2). After incubation, the supernatant from each well was extracted, and cells were washed with culture medium without fetal calf serum. Then, the supernatant was extracted and 200 μl culture medium without fetal calf serum were added to each well. In addition, 20 μl substrate were added to determine cell viability. This method is based on the ability of viable cells to transform the colourless substrate into a coloured substance that is excreted to the supernatant (EZ4U, Biomedica Gmbh.). After incubating cells for 1 hour at 37° C. and 5% CO2, 200 μl supernatant were collected and the absorbance was measured at 450 nm.
(§3) The absorbance was also determined at 620 nm as a measure of the existing non-specific value.

[2] = Cell viability of U-937 cells (EZ4U); assay type: cell-based; details: human, U-937 histiocytic lymphoma cells, read-out: Percentage of cell viability
Description: as §1, §2, §3

[3] = Cell viability of 143.98.2 cells (EZ4U); assay type: cell-based; details: human, read-out: Percentage of cell viability
Description: as §1, §2, §3

MCP-1 = MCP-1 expression induced by immune complexes in THP-1 cells (ELISA); assay type: cell-based, human; details: 100 μg/ml A-IgG
Description: Human monocytic THP-1 cells (3×10^6 cells/well) were cultured in plastic dishes in RPMI 1640 culture medium supplemented with penicillin (100 U/ml), streptomycin (100 μg/ml), gentamycin (50 μg/ml), glutamine (2 mM) and 2% heat-inactivated fetal calf serum. Cells were cultured in the presence of HTB (2 and 4 mM) or vehicle and were activated with 100 μg/ml immune complex aggregates (A-IgG). The production of soluble MCP-1 was determined by ELISA using a commercially available kit (R&D Systems Inc.; Minneapolis, Minn.). The detection limit of the system was 5 pg/ml.

[4] = Cell viability of 1321N1 cells (EZ4U); assay type: cell-based; details: human, 1321N1 cells (astrocytoma), read-out: Percentage of cell viability
Description: as §1, §2, §3

[5] = Adjuvant-induced arthritis in the rat; assay type: in vivo; details: 10 mg/kg p.o. daily for 28 days, day 28
Description: Adjuvant-induced arthritis is characterized by the development, from day 14 after adjuvant injection, of a chronic inflammation of immunological origin in several joints, with accumulation of inflammatory cells and release of cytokines. For this study, male Lewis rats with body weight between 100 and 150 g were used. Before the start of the study animals were acclimated for a period of at least 5 days. Animals were fasted for 18 hours before the study, with water ad libitum. Throughout the study, animals were allowed free access to drinking water, except during observation periods. Groups of five animals were randomized (Sham, Control and Triflusal). The duration of the study was 28 days. Arthritis was induced on day 1 of the study by subplantar administration of 0.1 ml of an emulsion formed with 10 mg M. butyricum and 10 ml Freund's incomplete adjuvant (Difco) to the right hindpaw of the animals from the Control and Triflusal groups. Sham animals received 0.1 ml Freund's incomplete adjuvant. […] On day 28 of the development of arthritis, the volume of the contralateral paw to that receiving the adjuvant injection was determined using a UGO BASILE 7150 plethysmometer. The inhibition of the increase in volume was calculated as follows: % Inh.=100−((T-S)/(C-S))*100 Where: T=Triflusal group; C=Control group; and S=Sham group

NF-κB = NF-κB activation in brain cells of post-natal Long Evans black-hooded rats (NMDA lesion); assay type: in vivo, rat
Description: This study was carried out using post-natal (P9) Long Evans black-hooded rats. Each group consisted of 6 animals subjected to an experimental lesion, plus two control animals of the same age. The experimental lesion was induced by intracortical injection (sensorimotor area) of N-methyl-D-aspartate (NMDA), which causes a marked local neuronal degeneration. Triflusal (30 mg/kg) was administered orally in three doses (from day 7 to 9) every 24 hours. Glial reactivity was induced by NMDA injection at postnatal day 9, one hour after the last triflusal dose. At different times (2-24 h) after this last dose, animals were killed, brains were extracted and cut in a cryostat and sections were processed using immunocytochemical and histochemical techniques to determine NF-κB activation in microglia and astroglia using double staining: NF-κB-lectin and NF-κB-GFPA. In parallel, slices were cut on a vibratome to determine the degree of microglial and astroglial reactivity by histoenzymatic techniques (B. Castellano et al., J.Histochem. Cytochem., 1991, 39(5), 561-568).

Compound: O=C(O)c1ccc(C(F)(F)F)cc1O [HTB, 2-hydroxy-4-trifluoromethylbenzoic acid]
- viability at 0 h, 1 mM ([1]; 1 mM HTB, 0 hours): 100%
- viability at 2 h, 1 mM ([1]; 1 mM HTB, 2 hours): 100%
- viability at 5 h, 1 mM ([1]; 1 mM HTB, 5 hours): 87.2%
- viability at 24 h, 1 mM ([1]; 1 mM HTB, 24 hours): 64.8%
- viability at 48 h, 1 mM ([1]; 1 mM HTB, 48 hours): 37.4%
- viability at 72 h, 1 mM ([1]; 1 mM HTB, 72 hours): 7.6%
- viability at 0 h, 3 mM ([1]; 3 mM HTB, 0 hours): 100%
- viability at 2 h, 3 mM ([1]; 3 mM HTB, 2 hours): 94.5%
- viability at 5 h, 3 mM ([1]; 3 mM HTB, 5 hours): 69.2%
- viability at 24 h, 3 mM ([1]; 3 mM HTB, 24 hours): 39.6%
- viability at 48 h, 3 mM ([1]; 3 mM HTB, 48 hours): 14.3%
- viability at 0 h, 1 mM ([2]; 1 mM HTB, 0 hours): 100%
- viability at 2 h, 1 mM ([2]; 1 mM HTB, 2 hours): 100%
- viability at 5 h, 1 mM ([2]; 1 mM HTB, 5 hours): 98.8%
- viability at 24 h, 1 mM ([2]; 1 mM HTB, 24 hours): 74.4%
- viability at 48 h, 1 mM ([2]; 1 mM HTB, 48 hours): 39.6%
- viability at 72 h, 1 mM ([2]; 1 mM HTB, 72 hours): 4.8%
- viability at 0 h, 3 mM ([2]; 3 mM HTB, 0 hours): 100%
- viability at 2 h, 3 mM ([2]; 3 mM HTB, 2 hours): 96.1%
- viability at 5 h, 3 mM ([2]; 3 mM HTB, 5 hours): 92.6%
- viability at 24 h, 3 mM ([2]; 3 mM HTB, 24 hours): 13.9%
- viability at 48 h, 3 mM ([2]; 3 mM HTB, 48 hours): 7.5%
- viability at 0 h, 1 mM ([3]; 143.98.2 cells (osteosarcoma), 1 mM HTB, 0 hours): 100%
- viability at 2 h, 1 mM ([3]; 143.98.2 cells (osteosarcoma), 1 mM HTB, 2 hours): 100%
- viability at 5 h, 1 mM ([3]; 143.98.2 cells (osteosarcoma), 1 mM HTB, 5 hours): 100%
- viability at 24 h, 1 mM ([3]; 143.98.2 cells (osteosarcoma), 1 mM HTB, 24 hours): 93.9%
- viability at 48 h, 1 mM ([3]; 143.98.2 cells (osteosarcoma), 1 mM HTB, 48 hours): 83.2%
- viability at 72 h, 1 mM ([3]; 143.98.2 cells (osteosarcoma), 1 mM HTB, 72 hours): 50.4%
- viability at 0 h, 3 mM ([3]; 143.98.2 cells (osteosarcoma), 3 mM HTB, 0 hours): 100%
- viability at 2 h, 3 mM ([3]; 143.98.2 osteosarcoma cells, 3 mM HTB, 2 hours): 98.1%
- viability at 5 h, 3 mM ([3]; 143.98.2 osteosarcoma cells, 3 mM HTB, 5 hours): 82.7%
- viability at 24 h, 3 mM ([3]; 143.98.2 osteosarcoma cells, 3 mM HTB, 24 hours): 52.2%
- viability at 48 h, 3 mM ([3]; 143.98.2 osteosarcoma cells, 3 mM HTB, 48 hours): 16.1%
- inhibition of MCP-1 expression induced by immune complexes (MCP-1; 2 mM): complete inhibition
- inhibition of MCP-1 expression induced by immune complexes (MCP-1; 4 mM): complete inhibition
- viability at 0 h, 1 mM ([4]; 1 mM HTB, 0 hours): 100%
- viability at 2 h, 1 mM ([4]; 1 mM HTB, 2 hours): 99.7%
- viability at 5 h, 1 mM ([4]; 1 mM HTB, 5 hours): 94.2%
- viability at 24 h, 1 mM ([4]; 1 mM HTB, 24 hours): 87.5%
- viability at 0 h, 3 mM ([4]; 3 mM HTB, 0 hours): 100%
- viability at 2 h, 3 mM ([4]; 3 mM HTB, 2 hours): 85.3%
- viability at 5 h, 3 mM ([4]; 3 mM HTB, 5 hours): 67.2%
- viability at 24 h, 3 mM ([4]; 3 mM HTB, 24 hours): 62.2%
- viability at 48 h, 3 mM ([4]; 3 mM HTB, 48 hours): 17.8%

Compound: CC(=O)Oc1cc(C(F)(F)F)ccc1C(=O)O [triflusal, 2-Acetyloxy-4-trifluoromethylbenzoic acid, reference compound]
- inhibition of the increase in volume of the contralateral paw [5]: 63.1±8.0%
- NF-κB activation in astroglial and microglial cells after NMDA excitotoxic lesion (NF-κB; 30 mg/kg p.o. pretreatment): completely inhibited
- basal (constitutive) NF-κB activation in cortical neurons of control animals (NF-κB; triflusal 30 mg/kg orally, three doses every 24 hours): inhibited

Reference: US6509377B1, “Use of a 2-hydroxy-4-trifluoromethylbenzoic acid derivatives as inhibitors of the activation of the nuclear transcription factor NF-κB” (J. Uriach & Cia, S.A., priority 1999, dated 2003)
